US8299074B2, “P38 MAP kinase inhibitors” (RespiVert Ltd., priority 2008, dated 2012)
Where two headings read alike, the source gives them in different places.

Columns and labels:
U937 cells [1] = assay: LPS-induced IL-8 release in U937 cells; format: cell-based; conditions: Homo sapiens, read-out: DU937 (LPS) IL-8 IC50
Experimental: (§1) LPS-Induced TNF Alpha/IL-8 Release in U937 Cells: Potency U937 cells, human monocytic cell line, were differentiated to macrophage-type cells by incubation with phorbol myristate acetate (PMA; 100 ng/ml) for 48 to 72 hours. Cells were pre-incubated with final concentrations of compound for 2 hrs. […] Coli: O111:B4, Sigma) for 4 hrs, and the supernatant collected for determination of TNFα and IL-8 concentration by sandwich ELISA (Duo-set, R&D systems). […] The inhibition of IL-8 production was calculated at each concentration of test compound by comparison with vehicle control.

[2] = test system: Differentiated U937 cells; assay: MTT assay (cell viability); format: cell-based, human
Experimental: MTT Assay Differentiated U937 cells were pre-incubated with compound for 4 hrs in 5% FCS or 10% FCS for 24 hrs. […] After 1 hr incubation, the media were removed, 200 ul of DMSO added to each well and the plates were shaken lightly for 1 h prior to reading the absorbance at 550 nm. The percentage loss of cell viability was calculated for each well relative to vehicle (0.5% DMSO)-treatment. Consequently an apparent increase in cell viability for drug treatment relative to vehicle is tabulated as a negative percentage.

p38 MAPK alpha (MAPK14) = molecular target: T1, p38 MAPK alpha (MAPK14) (Homo sapiens, UniProt Q16539); assay: Enzyme inhibition assay, p38 MAPK alpha (FRET, Z-LYTE, via MAPKAP-K2); format: biochemical; conditions: read-out: Enzyme p38α IC50
T1 construct: purchased Invitrogen

BEAS2B cells = assay: Poly I:C-induced ICAM-1 induction in BEAS2B cells; format: cell-based; conditions: Homo sapiens, BEAS-2B, read-out: BEAS2B (polyIC) ICAM1 IC50
Experimental: Poly I:C-Induced ICAM-1 Induction in BEAS2B Cells: Potency Poly I:C (1 ug/ml) (Invivogen Ltd., San Diego, Calif.) was transfected into BEAS2B cells (human bronchial epithelial cells, ATCC) with Oligofectamine (Invitrogen, Carlsbad, Calif.). Cells were pre-incubated with final concentrations of compound for 2 hrs. The level of ICAM1 expression on the cell surface was determined by cell-based ELISA. Briefly, at 18 hrs after poly I:C transfection, cells were fixed with 4% formaldehyde in PBS. After quenching endogenous peroxidase by adding 0.1% sodium azide and 1% hydrogen peroxide, cells were washed with wash-buffer (0.1% Tween in PBS: PBS-Tween). After blocking the wells with 5% milk in PBS-Tween for 1 hr, the cells were incubated with anti-human ICAM-1 antibody (Cell Signaling Technology, Danvers, Mass.) in 1% BSA PBS overnight at 4° C. Cells were washed with PBS-Tween and incubated with the secondary antibody (HRP-conjugated anti-rabbit IgG, Dako Ltd., Glostrup, Denmark). The ICAM-1 signal was detected by adding substrate and reading at 450 nm with a reference wavelength of 655 nm using a spectrophotometer. […] The measured OD 450-655 readings were corrected for cell number by dividing with the OD595 reading in each well.

THP-1 cells = assay: LPS-induced TNF alpha release in THP-1 cells; format: cell-based; conditions: Homo sapiens
Experimental: LPS-Induced TNF Alpha Release in THP-1 Cells: Potency […] Coli; O111:B4, Sigma) for 4 hr and the supernatant collected for determination of TNFα concentration by sandwich ELISA (Duo-set, R&D systems). The inhibition of TNFα production was calculated at each concentration by comparison with vehicle control.

U937 cells [3] = assay: LPS-induced TNF alpha release in U937 cells; format: cell-based
Experimental: as §1

[4] = Table 3, first MTT column, loss of cell viability at 1 μg/ml
[5] = Table 3, second MTT column, loss of cell viability at 1 μg/ml
[6] = THP-1, Table 3, read-out: THP-1 (LPS) TNFα IC50
[7] = Homo sapiens; read-out: DU937 (LPS) TNFα REC50
[8] = Table 2, loss of cell viability at 1 μg/ml
[9] = THP-1, Table 2, read-out: THP-1 (LPS) TNFα IC50
[10] = Table 2, loss of cell viability, test conducted at 10 μg/ml
[11] = Homo sapiens, read-out: DU937 (LPS) TNFα REC50
[12] = THP-1, read-out: THP-1 (LPS) TNFα IC50

T1 sequence (Q16539 whole entry): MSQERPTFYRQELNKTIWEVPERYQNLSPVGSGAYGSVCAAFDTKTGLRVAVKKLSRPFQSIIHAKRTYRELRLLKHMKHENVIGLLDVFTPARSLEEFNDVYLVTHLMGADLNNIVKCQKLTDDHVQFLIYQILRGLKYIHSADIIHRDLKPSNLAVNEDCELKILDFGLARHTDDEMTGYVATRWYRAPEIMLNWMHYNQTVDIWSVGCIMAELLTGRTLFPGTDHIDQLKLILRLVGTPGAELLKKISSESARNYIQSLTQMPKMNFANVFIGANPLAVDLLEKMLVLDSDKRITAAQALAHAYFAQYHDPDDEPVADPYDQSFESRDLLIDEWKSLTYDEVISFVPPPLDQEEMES

Structure (SMILES) | EC50 (U937 cells [3]; [7]) | IC50 (U937 cells [1]; Table 2) | IC50 (THP-1 cells; [9]) | DU937 (cell viability) MTT assay 4 h [2, 4] | DU937 (cell viability) MTT assay 4 h [2, 5] | DU937 (cell viability) MTT assay 4 h [2, 8] | DU937 (cell viability) MTT assay 24 h [2, 8] | IC50 (BEAS2B cells; Table 2) | DU937 (cell viability) MTT assay 4 h [2, 10] | DU937 (cell viability) MTT assay 24 h [2, 10] | other results
Cc1ccc(-n2nc(C(C)(C)C)cc2NC(=O)Nc2ccc(Oc3ccnc(NC(=O)NCC(=O)N4CCOCC4)c3)c3ccccc23)cc1 [Example 58, 2-(3-(4-(4-(3-(3-tert-Butyl-1-p-tolyl-1H-pyrazol-5-yl)ureido)naphthalen-1-yloxy)pyridin-2-yl)ureido)acetyl morpholine] |  |  |  | − (<=30%) | − (<=30%) |  |  |  |  |  | IC50 (U937 cells [1]; Table 3): < 10 nM; IC50 (p38 MAPK alpha (MAPK14); Table 3): < 10 nM; IC50 (BEAS2B cells; Table 3): < 10 nM; IC50 (THP-1 cells; [6]): < 10 nM
CCc1cc(NC(=O)Nc2ccc(Oc3ccnc(NC(=O)COC)c3)c3ccccc23)n(-c2ccc(C)cc2)n1 [Example 7, N-(4-(4-(3-(3-Ethyl-1-p-tolyl-1H-pyrazol-5-yl)ureido)naphthalen-1-yloxy)pyridin-2-yl)-2-methoxyacetamide] | < 10 nM | < 10 nM | < 10 nM |  |  | − (<=30%) | − (<=30%) | < 5000 nM |  |  | IC50 (p38 MAPK alpha (MAPK14); Table 2): < 10 nM
COCC(=O)Nc1cc(Oc2ccc(NC(=O)Nc3cc(C(C)(C)C)nn3-c3ccc(C)cc3)c3ccccc23)ccn1 [Example 8, N-(4-(4-(3-(3-tert-Butyl-1-p-tolyl-1H-pyrazol-5-yl)ureido)naphthalen-1-yloxy)pyridin-2-yl)-2-methoxyacetamide] | < 10 nM | < 10 nM | < 5000 nM |  |  | − (<=30%) | + (>30%) | < 10 nM |  |  | 
COCCOCC(=O)N1CCC(NC(=O)Nc2cc(Oc3ccc(NC(=O)Nc4cc(C(C)(C)C)nn4-c4ccc(C)cc4)c4ccccc34)ccn2)CC1 [Example 40, 2-(2-Methoxyethoxy)-1-(4-(3-(4-(4-(3-(3-tert-butyl-1-p-tolyl-1H-pyrazol-5-yl)ureido)naphthalen-1-yloxy)pyridin-2-yl)ureido)piperidin-1-yl)ethanone] |  |  |  | − (<=30%) | + (>30%) |  |  |  |  |  | EC50 (U937 cells [3]; [11]): < 10 nM; IC50 (U937 cells [1]): < 10 nM; IC50 (BEAS2B cells): < 10 nM; IC50 (THP-1 cells; [12]): < 10 nM
Cc1ccc(-n2nc(C(C)(C)C)cc2NC(=O)Nc2ccc(Oc3ccnc(NC(=O)NC4CC4)c3)c3ccccc23)cc1 [Example 33, 1-(4-((2-(3-Cyclopropylureido)pyridin-4-yl)oxy)naphthalen-1-yl)-3-(3-(tert-butyl)-1-(p-tolyl)-1H-pyrazol-5-yl)urea] | < 10 nM |  |  | − (<=30%) | − (<=30%) |  |  |  |  |  | IC50 (p38 MAPK alpha (MAPK14); Table 3): < 5000 nM; IC50 (BEAS2B cells; Table 3): < 5000 nM; IC50 (THP-1 cells; [6]): < 10 nM
COCC(=O)Nc1cc(Oc2ccc(NC(=O)Nc3cc(C(C)(C)C)nn3-c3ccc(C)cc3)c(C)c2)ccn1 [Example 24, N-(4-(4-(3-(3-tert-Butyl-1-p-tolyl-1H-pyrazol-5-yl)ureido)-3-methylphenoxy)pyridin-2-yl)-2-methoxyacetamide] | < 10 nM | < 10 nM | < 10 nM |  |  | − (<=30%) | + (>30%) |  |  |  | IC50 (p38 MAPK alpha (MAPK14); Table 2): < 5000 nM
COCCOCC(=O)Nc1cc(Oc2ccc(NC(=O)Nc3cc(C(C)(C)C)nn3-c3ccc(C)cc3)c3ccccc23)ccn1 [Example 1, N-(4-(4-(3-(3-tert-Butyl-1-p-tolyl-1H-pyrazol-5-yl)ureido)naphthalen-1-yloxy)pyridin-2-yl)-2-(2-methoxyethoxy)acetamide] |  |  |  |  |  |  |  |  | −^$ (<=30%) | +^$ (>30%) | EC50 (U937 cells [3]; [11]): < 10 nM; IC50 (U937 cells [1]): < 5000 nM; IC50 (BEAS2B cells): < 5000 nM; IC50 (THP-1 cells; [12]): < 10 nM
COCCC(=O)Nc1cc(Oc2ccc(NC(=O)Nc3cc(C(C)(C)C)nn3-c3ccc(C)cc3)c3ccccc23)ccn1 [Example 4, N-(4-(4-(3-(3-tert-Butyl-1-p-tolyl-1H-pyrazol-5-yl)ureido)naphthalen-1-yloxy)pyridin-2-yl)-3-methoxypropanamide] | < 10 nM | < 10 nM | < 10 nM |  |  |  |  | < 10 nM | −^$ (<=30%) | +^$ (>30%) | 

Now from value to compound, other results behind:

EC50 (U937 cells [3]; [7]) | IC50 (U937 cells [1]; Table 2) | IC50 (THP-1 cells; [9]) | Structure (SMILES) | DU937 (cell viability) MTT assay 4 h [2, 4] | DU937 (cell viability) MTT assay 4 h [2, 5] | DU937 (cell viability) MTT assay 4 h [2, 8] | DU937 (cell viability) MTT assay 24 h [2, 8] | IC50 (BEAS2B cells; Table 2) | DU937 (cell viability) MTT assay 4 h [2, 10] | DU937 (cell viability) MTT assay 24 h [2, 10] | other results
< 5000 nM | < 10 nM | < 10 nM | Cc1ccc(-n2nc(C(C)(C)C)cc2NC(=O)Nc2ccc(Oc3ccnc(NC(=O)C4CCOCC4)c3)c3ccccc23)cc1 [Example 2, N-(4-(4-(3-(3-tert-Butyl-1-p-tolyl-1H-pyrazol-5-yl)ureido)naphthalen-1-yloxy)pyridin-2-yl)tetrahydro-2H-pyran-4-carboxamide] |  |  |  |  | < 10 nM | −^$ (<=30%) | +^$ (>30%) | 
< 10 nM | < 10 nM | < 10 nM | [2H]c1c([2H])c(C([2H])([2H])[2H])c([2H])c([2H])c1-n1nc(C(C)(C)C)cc1NC(=O)Nc1ccc(Oc2ccnc(NC(=O)COC)c2)c2ccccc12 [Example 10, N-(4-(4-(3-(3-tert-butyl-1-(2,3,5,6-tetradeutero-4-(trideuteromethyl)phenyl)-1H-pyrazol-5-yl)ureido)naphthalen-1-yloxy)pyridin-2-yl)-2-methoxyacetamide] |  |  | − (<=30%) | + (>30%) | < 10 nM |  |  | 
< 5000 nM | < 10 nM | < 10 nM | CSCC(=O)Nc1cc(Oc2ccc(NC(=O)Nc3cc(C(C)(C)C)nn3-c3ccc(C)cc3)c3ccccc23)ccn1 [Example 3, N-(4-(4-(3-(3-tert-Butyl-1-p-tolyl-1H-pyrazol-5-yl)ureido)naphthalen-1-yloxy)pyridin-2-yl)-2-(methylthio)acetamide] |  |  |  |  | < 5000 nM | −^$ (<=30%) | +^$ (>30%) | 
< 10 nM |  |  | Cc1ccc(-n2nc(C(C)(C)C)cc2NC(=O)Nc2ccc(Oc3ccnc(NC(=O)NC4CC4)n3)c3ccccc23)cc1 [Example 69, 1-Cyclopropyl-3-(4-(4-(3-(3-tert-butyl-1-p-tolyl-1H-pyrazol-5-yl)ureido)naphthalen-1-yloxy)pyrimidin-2-yl)urea] |  |  |  |  |  |  |  | IC50 (U937 cells [1]; Table 1): < 10 nM; DU937 (cell viability) MTT assay 4 h ([2]; Table 1, MTT, loss of cell viability at 1 μg/ml): − (<=30%); DU937 (cell viability) MTT assay 4 h ([2]; Table 1, first MTT column, loss of cell viability at 1 μg/ml): − (<=30%); IC50 (p38 MAPK alpha (MAPK14); Table 1): < 10 nM; IC50 (THP-1 cells; THP-1, Table 1, read-out: THP-1 (LPS) TNFα IC50): < 5000 nM
< 5000 nM |  |  | Cc1ccc(-n2nc(C(C)(C)C)cc2NC(=O)Nc2ccc(Oc3ccnc(NC(=O)NC4CCN(S(C)(=O)=O)CC4)c3)c3ccccc23)cc1 [Example 41, N-Methylsulfonyl-4-(3-(4-(4-(3-(3-tert-butyl-1-p-tolyl-1H-pyrazol-5-yl)ureido)naphthalen-1-yloxy)pyridin-2-yl)ureido)piperidine] | − (<=30%) | + (>30%) |  |  |  |  |  | IC50 (U937 cells [1]; Table 3): < 5000 nM; IC50 (p38 MAPK alpha (MAPK14); Table 3): < 10 nM; IC50 (THP-1 cells; [6]): < 10 nM
